Reference: PMC9939733 (The Journal of Biological Chemistry, 2023)
Residue numbers refer to the chain shown, from its start.

Experiments:
Format in all cases: biochemical
WT IDH2 [1] = molecular target: T1, WT IDH2 (Homo sapiens, UniProt P48735); test: Absorbance assay, WT activity in the presence of equimolar DL-isocitrate (inhibition); conditions: […] isocitrate and […] test compound, 75 μM NADP+, 2.0 nM WT IDH2
T1 construct: made in house; host or cells: Sf21 insect cells (cell pellets prepared at Evotec)
T1 sequence (P48735 40-452): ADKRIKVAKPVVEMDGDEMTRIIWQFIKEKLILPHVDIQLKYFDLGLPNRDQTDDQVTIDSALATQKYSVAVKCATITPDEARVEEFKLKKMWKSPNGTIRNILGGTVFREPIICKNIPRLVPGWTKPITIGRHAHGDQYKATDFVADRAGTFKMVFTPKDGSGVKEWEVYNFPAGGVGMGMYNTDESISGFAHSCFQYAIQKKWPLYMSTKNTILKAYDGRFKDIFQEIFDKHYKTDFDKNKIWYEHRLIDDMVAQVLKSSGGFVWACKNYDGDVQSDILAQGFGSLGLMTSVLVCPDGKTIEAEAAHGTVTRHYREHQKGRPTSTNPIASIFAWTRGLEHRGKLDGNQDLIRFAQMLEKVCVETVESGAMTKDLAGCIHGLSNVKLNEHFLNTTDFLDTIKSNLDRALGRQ
Method: (§1) Compounds were dispensed using a CyBio SDW-CW CyBi-Well Simultaneous Pipettor and assay started using a ThermoFisher Multidrop Combi reagent dispenser.
(§2) Reactions were performed as technical quadruplicates.

WT IDH1 [2] = molecular target: T2, WT IDH1 (Homo sapiens, UniProt O75874); test: as above; conditions: […] isocitrate and […] test compound, 75 μM NADP+, 2.0 nM WT IDH1
T2 construct: made in house; host or cells: Escherichia coli BL21(DE3) pLyS
Method: as §1, §2

R172K IDH2 = molecular target: T3, R172K IDH2 (Homo sapiens, UniProt P48735, R172K); test: Absorbance assay, variant activity in the presence of equimolar 2OG (inhibition screen); conditions: 1.0 mM 2OG and 1.0 mM test compound, 0.03 μM R172K IDH2, 50 μM NADPH
T3 construct: made in house; host or cells: Sf21 insect cells (cell pellets prepared at Evotec)
T3 sequence (P48735 40-452 R172K): T1 sequence (P48735 40-452) with R133K
Method: as §1, §2

R140Q IDH2 = molecular target: T4, R140Q IDH2 (Homo sapiens, UniProt P48735, R140Q); test: as above; conditions: 6.0 mM 2OG and 6.0 mM test compound, 0.03 μM R140Q IDH2, 50 μM NADPH
T4 construct: made in house; host or cells: Sf21 insect cells (cell pellets prepared at Evotec)
T4 sequence (P48735 40-452 R140Q): T1 sequence (P48735 40-452) with R101Q
Method: as §1, §2

R132H IDH1 = R132H IDH1 (Homo sapiens, UniProt O75874, R132H); test: as above; parameters: made in house; host or cells: Escherichia coli BL21(DE3) pLyS; conditions: […] 2OG and […] test compound, 0.03 μM R132H IDH1, 50 μM NADPH
Method: as §1, §2

WT IDH2 [3] = molecular target: T1, WT IDH2; test: Absorbance assay, substrate activity in the absence of DL-isocitrate; conditions: no DL-isocitrate; […] test compound, 75 μM NADP+, 2.0 nM WT IDH2; compared to DL-isocitrate
Method: as §1, §2

WT IDH1 [4] = molecular target: T2, WT IDH1; test: as above; conditions: no DL-isocitrate; […] test compound, 75 μM NADP+, 2.0 nM WT IDH1; compared to DL-isocitrate
Method: as §1, §2

R132H IDH1, sequence (O75874 whole entry R132H): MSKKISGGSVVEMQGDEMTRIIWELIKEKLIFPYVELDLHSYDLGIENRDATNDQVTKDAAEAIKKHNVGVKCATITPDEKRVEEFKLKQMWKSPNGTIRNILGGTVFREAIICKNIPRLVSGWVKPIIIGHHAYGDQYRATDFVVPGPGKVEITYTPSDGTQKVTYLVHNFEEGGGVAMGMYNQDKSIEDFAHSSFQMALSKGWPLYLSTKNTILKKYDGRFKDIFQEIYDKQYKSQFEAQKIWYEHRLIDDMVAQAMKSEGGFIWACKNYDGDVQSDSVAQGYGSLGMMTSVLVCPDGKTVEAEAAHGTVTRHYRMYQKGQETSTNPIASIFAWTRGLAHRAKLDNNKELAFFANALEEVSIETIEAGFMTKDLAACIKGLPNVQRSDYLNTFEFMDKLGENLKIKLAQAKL
T2 sequence (O75874 whole entry): as the sequence (O75874 whole entry R132H) above, with H132R counted along it

Compound	activity [%] (%-substrate conversion after 20 min incubation) (WT IDH2 [1])	activity [%] (%-substrate conversion after 20 min incubation) (WT IDH1 [2])	activity [%] (%-substrate conversion after 20 min incubation) (R172K IDH2)	activity [%] (%-substrate conversion after 20 min incubation) (R140Q IDH2)	activity [%] (%-substrate conversion after 20 min incubation) (R132H IDH1)	activity [%] (%-substrate conversion after 20 min incubation) (WT IDH2 [3])	activity [%] (%-substrate conversion after 20 min incubation) (WT IDH1 [4])
O=C(O)C(=O)C1CC1C(=O)O (mixture of isomers) [compound 21]	95±2	96±1	110 ± 4	394 ± 40	132 ± 3	< 10	< 10
CC1(C)C(C(=O)O)C1C(=O)C(=O)O (mixture of isomers) [compound 22]	96±1	96±1	110 ± 10	112 ± 4	92 ± 5	–	–
O=C(O)C(=O)C1CCC(C(=O)O)CC1 (mixture of isomers) [compound 25]	92±9	104±6	–	–	–	–	–
O=C(O)C(=O)C1CC=CCC1C(=O)O (mixture of isomers) [compound 27]	92±4	93±1	104 ± 8	97 ± 4	94 ± 11	–	–
CC(C)(C)CCC(CC(=O)O)C(=O)C(=O)O (racemic) [compound 5]	98±1	95±6	98 ± 3	146 ± 4	142 ± 14	< 10	< 10
O=C(O)CC(CCCc1ccccc1)C(=O)C(=O)O (racemic) [compound 6]	99±1	96±1	93 ± 1	239 ± 37	182 ± 10	< 10	< 10
O=C(O)CC(Cc1ccc(F)cc1)C(=O)C(=O)O (racemic) [compound 8]	100±1	96±3	106 ± 5	516 ± 40	186 ± 6	< 10	< 10
COc1ccc(CC(CC(=O)O)C(=O)C(=O)O)cc1 (racemic) [compound 9]	98±3	93±2	111 ± 3	125 ± 3	200 ± 15	< 10	< 10
CCC(CC(=O)C(=O)O)C(=O)O (racemic) [compound 14]	98±3	94±1	112 ± 13	117 ± 9	103 ± 2	< 10	< 10
CCCC(CC(=O)C(=O)O)C(=O)O (racemic) [compound 15]	98±3	95±3	97 ± 5	116 ± 4	101 ± 7	< 10	< 10
CCCCC(CC(=O)C(=O)O)C(=O)O (racemic) [compound 16]	100±2	102±3	100 ± 5	131 ± 9	113 ± 4	< 10	< 10
CC(C)(C)CCC(CC(=O)C(=O)O)C(=O)O (racemic) [compound 17]	100±2	95±7	93 ± 3	119 ± 5	93 ± 3	< 10	< 10
O=C(O)C(=O)CC(CCCc1ccccc1)C(=O)O (racemic) [compound 18]	100±1	101±3	74 ± 12	101 ± 3	82 ± 3	< 10	< 10
O=C(O)C(=O)C1C2C=CC(C2)C1C(=O)O (racemic) [compound 28]	99±1	–	–	114 ± 4	116 ± 4	–	–
O=C(O)C(=O)c1cccc(C(=O)O)c1 [compound 29]	99±1	94±2	93 ± 7	95 ± 7	88 ± 2	–	–
O=C(O)C(=O)c1ccc(C(=O)O)cc1 [compound 30]	100±4	101±2	110 ± 8	94 ± 3	103 ± 2	–	–
O=C(O)C(=O)c1cscc1C(=O)O [compound 31]	101±2	103±1	99 ± 3	113 ± 4	102 ± 5	–	–
